This test concerns K12877-001-R-J1-PDC complex spheroid viability. Put plainly: Anticancer human tumor K12877-001-R-J1-PDC patient-derived lung adenocarcinoma cell line growth inhibition [RAS]. The following applies: for viability, T/C: stronger effect = lower value. The method, boiled down: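 Tumour cells grown as complex spheroids with HUVEC endothelial cells and mesenchymal stem cells, treated with RAS pathway inhibitor combinations. Each agent spans half-log steps from near clinical Cmax, or 10 microM where Cmax is unknown.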

[1] abbreviates: curve of first compound, second compound 0.0316 µM.
Where [2] appears, read: curve of first compound, second compound 0.1 µM.
Where [3] appears, read: curve of first compound, second compound 0.316 µM.
[4] abbreviates: curve of first compound, second compound 1 µM.
Where [5] appears, read: curve of first compound, second compound 3.16 µM.
[6] abbreviates: curve of first compound, second compound 10 µM.
[7] abbreviates: second compound 0.0316 µM, first compound 0.0316 µM.
Where [8] appears, read: second compound 0.0316 µM, first compound 0.1 µM.
The mark [9] stands for this setting: second compound 0.0316 µM, first compound 0.316 µM.
The mark [10] stands for this setting: second compound 0.0316 µM, first compound 1 µM.
Where [11] appears, read: second compound 0.1 µM, first compound 0.0316 µM.
The mark [12] stands for this setting: second compound 0.1 µM, first compound 0.1 µM.
Where [13] appears, read: second compound 0.1 µM, first compound 0.316 µM.
Where [14] appears, read: second compound 0.1 µM, first compound 1 µM.
Setting [15] is: second compound 0.316 µM, first compound 0.0316 µM.
[16] abbreviates: second compound 0.316 µM, first compound 0.1 µM.
The mark [17] stands for this setting: second compound 0.316 µM, first compound 0.316 µM.
Where [18] appears, read: second compound 0.316 µM, first compound 1 µM.
Setting [19] is: second compound 1 µM, first compound 0.0316 µM.
[20] abbreviates: second compound 1 µM, first compound 0.1 µM.
Where [21] appears, read: second compound 1 µM, first compound 0.316 µM.
Setting [22] is: second compound 1 µM, first compound 1 µM.
[23] abbreviates: second compound 3.16 µM, first compound 0.0316 µM.
[24] abbreviates: second compound 3.16 µM, first compound 0.1 µM.
The mark [25] stands for this setting: second compound 3.16 µM, first compound 0.316 µM.
[26] abbreviates: second compound 3.16 µM, first compound 1 µM.
Where [27] appears, read: second compound 10 µM, first compound 0.0316 µM.
Setting [28] is: second compound 10 µM, first compound 0.1 µM.
Setting [29] is: second compound 10 µM, first compound 0.316 µM.
Where [30] appears, read: second compound 10 µM, first compound 1 µM.

Where “and” joins values, the source holds several entries; their conditions need not be identical. Equal entries are not always repeated. Where only a bound is given, the exact number is not on record here.
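Note: spheroids exposed to agents for one week before readout.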

One may read the IC50 as the concentration needed to halve the response being measured. By viability, T/C is commonly meant the ratio of treated to control. For the compound `Nc1ccn(C2OC(CO)C(O)C2(F)F)c(=O)n1` (configuration not stated) + C#Cc1c(F)ccc2cc(O)cc(-c3ncc4c(N5CC6CCC(C5)N6)nc(OCC56CCCN5CC(F)C6)nc4c3F)c12, the IC50 is, setting by setting: under setting [1], 18.7 nM; under setting [2], 17 nM; under setting [3], 17.8 nM; under setting [4], 17.6 nM; under setting [5], 17.4 nM; under setting [6], 16.2 nM. The viability, T/C is 98.9% (second compound 0.0316 µM, first compound 0.00316 µM); 102% (second compound 0.0316 µM, first compound 0.01 µM); 7.92% under setting [7]; 5.24% under setting [8]; 5.93% under setting [9]; 6.36% under setting [10]. In addition, the viability, T/C (second compound 0.1 µM, first compound 0.00316 µM) is 119%; the viability, T/C (second compound 0.1 µM, first compound 0.01 µM) is 85.9%; the viability, T/C under setting [11] is 7.72%; the viability, T/C under setting [12] is 5.87%; the viability, T/C under setting [13] is 5.86%; the viability, T/C under setting [14] was 5.63%. For the same compound, the viability, T/C is 102% (second compound 0.316 µM, first compound 0.00316 µM); 92.7% (second compound 0.316 µM, first compound 0.01 µM); 7.04% under setting [15]; 5.27% under setting [16]; 5.95% under setting [17]; 6.35% under setting [18]. Moreover, the viability, T/C by setting is: (second compound 1 µM, first compound 0.00316 µM) 102%; (second compound 1 µM, first compound 0.01 µM) 88.8%; under setting [19], 9.52%; under setting [20], 5.65%; under setting [21], 6.02%; under setting [22], 6.24%. The viability, T/C by setting is: (second compound 3.16 µM, first compound 0.00316 µM) 106%; (second compound 3.16 µM, first compound 0.01 µM) 89%; under setting [23], 8.02%; under setting [24], 4.94%; under setting [25], 5.19%; under setting [26], 5.82%. The viability, T/C was 101% (second compound 10 µM, first compound 0.00316 µM); 79.4% (second compound 10 µM, first compound 0.01 µM); 8.95% under setting [27]; 5.43% under setting [28]; 6.72% under setting [29]; 5.24% under setting [30].
In the case of `CC(C)NCC(C(=O)N1CCN(c2ncnc3c2C(C)CC3O)CC1)c1ccc(Cl)cc1` (configuration not stated), the viability, T/C was 107% and 110% (2×) and 97.4% (compound 0.0316 µM); 102% [middle of 4 runs] (compound 0.1 µM).
Regarding `CC(Nc1ccc2c(c1)OCCn1cc(N3C(=O)OCC3C(F)F)nc1-2)C(N)=O` (configuration not stated) + C#Cc1c(F)ccc2cc(O)cc(-c3ncc4c(N5CC6CCC(C5)N6)nc(OCC56CCCN5CC(F)C6)nc4c3F)c12, the half-maximal inhibitory concentration (IC50) runs as follows: under setting [1], 4900 nM; under setting [2], 3940 nM; under setting [3], 4320 nM; under setting [4], 4490 nM; under setting [5], 4630 nM; under setting [6], 2910 nM. Also, the viability, T/C is, setting by setting: under setting [7], 97.5%; under setting [8], 88.9%; under setting [9], 80.2%; under setting [10], 69.6%; (second compound 0.0316 µM, first compound 3.16 µM) 60.4%; (second compound 0.0316 µM, first compound 10 µM) 37.4%. Further, the viability, T/C under setting [11] is 107%; the viability, T/C under setting [12] was 82.7%; the viability, T/C under setting [13] is 84.6%; the viability, T/C under setting [14] is 62.7%; the viability, T/C (second compound 0.1 µM, first compound 3.16 µM) is 56.7%; the viability, T/C (second compound 0.1 µM, first compound 10 µM) is 37%. The viability, T/C runs as follows: under setting [15], 110%; under setting [16], 88.9%; under setting [17], 73.9%; under setting [18], 71.2%; (second compound 0.316 µM, first compound 3.16 µM) 55.1%; (second compound 0.316 µM, first compound 10 µM) 38.8%. Besides, the viability, T/C runs as follows: under setting [19], 96.3%; under setting [20], 90.3%; under setting [21], 78.5%; under setting [22], 64.5%; (second compound 1 µM, first compound 3.16 µM) 60.3%; (second compound 1 µM, first compound 10 µM) 37%. In addition, the viability, T/C under setting [23] is 103%; the viability, T/C under setting [24] was 89.4%; the viability, T/C under setting [25] was 79.6%; the viability, T/C under setting [26] was 65.1%; the viability, T/C (second compound 3.16 µM, first compound 3.16 µM) is 64.8%; the viability, T/C (second compound 3.16 µM, first compound 10 µM) is 35.2%. The viability, T/C reads like this: under setting [27], 99.5%; under setting [28], 75.7%; under setting [29], 68.8%; under setting [30], 63%; (second compound 10 µM, first compound 3.16 µM) 66.5%; (second compound 10 µM, first compound 10 µM) 23.8%.
`C=CC(=O)N1CCN(c2nc(OCC3CCCN3C)nc3c(F)c(-c4nc(N)cc(C)c4C(F)(F)F)c(Cl)cc23)C(C)C1` (configuration not stated): the viability, T/C (compound 0.00316 µM) was 99.2% [middle of 12 runs]; the viability, T/C (compound 0.1 µM) is 87.8% [middle of 12 runs]; the viability, T/C (compound 0.316 µM) was 86% [middle of 12 runs]. Further, the concentration for half-maximal inhibition (IC50) is greater than 1000 nM (compound alone, run of 09/09/2024) and greater than 1000 nM (curve of compound).
For `CCc1c2c(nc3ccc(O)cc13)-c1cc3c(c(=O)n1C2)COC(=O)[C@]3(O)CC`, the viability, T/C by setting is: (compound 0.000949 µM) 99.2% [middle of 4 runs]; (compound 0.00949 µM) 14% [middle of 4 runs]; (compound 0.03 µM) 5.09% [middle of 4 runs]; (compound 0.0949 µM) 3.24% [middle of 4 runs]; (compound 0.3 µM) 1.19% [middle of 4 runs]. The IC50 (curve of compound) is 5.02 nM [middle of 4 runs].
